A short description of series [1]: Metabolism of AC, MA and HA in rat liver microsomes by HPLC. Conditions: NADPH. The class given is in vitro ADME. The method, then: Agilent C18 column (4.60 mm × 150 mm, 5μm), mobile phase A was 20 mmol / L ammonium acetate and 0.1% formic acid aqueous solution, mobile phase B was methanol, isocratic elution, A: B = 60:40, flow rate was 1 ml / min, detection wavelength was 240 nm, column temperature was 30°C, injection volume was 20 μL.
(§1) 1 mg / ML microsome 100 μL, PBS 75 μL and aconitine alkaloids 5 μL (AC, MA and HA: 1 mmol / L) were added. 20 μL NADPH (10 mmol / L) was added to start the reactionand, AC and HA were incubated for 90 min, MA were incubated for 120 min. The reaction was terminated by adding 200 μL glacial acetonitrile, 12 000 r / min at 4°C for 10 min, and 20 μL supernatant was used for HPLC.
(In general: Liver microsomes are vesicles of endoplasmic reticulum, rich in cytochrome P450 enzymes.)

The nature of series [2]: Plasma concentration of AC, MA and HA in rats by LC-MS/MS. Conditions: for plasma concentration with compatibility of Glycyrrhizae and Aconitum vs Aconitum alone: 2 mL/kg by gavage; for Plasma concentration: single animals. It counts as in vivo, rat. Also noted: Plasma concentration: unit not given here. The method, then: 12 SD rats were randomly divided into Aconitum and Glycyrrhizae combind with Aconitum group, 6 rats in each group, 2 mL / kg was given by gavage respectively.

Series [3] is described as follows: Metabolic stability (t1/2, CLint) of AC, MA and HA in RLMs of pretreated rats. To be noted: for microsomal CLint at 25 µM / half-life at 25 µM: SD, rat, microsomes.
In the next series the test system is CYP450. Kind of series: Effect of CYP450 inhibitors on metabolism of AC, MA and HA in rat liver microsomes. It counts as in vitro ADME. To be noted: RLMs. The method, then:
as §1
Added microsome 100 μL, PBS 75 μL, aconitine alkaloids 5 μL, inhibitors (furatheophylline: 0.2 mmol / L, sulfabendazole: 0.4 mmol / L, quinidine: 0.1 mmol / L, ketoconazole: 0.04 mmol / L) 10 μL. The operation of HPLC was as above. The effect of CYP450 inhibitors on the metabolism of Aconitum alkaloids was calculated. The formula is as follows:
% inhibition = Peak area of X after adding inhibitor / Peak area of X before adding inhibitor × 100%, where X is metabolites of AC, MA and HA.

Setting [4] is: Aconitum 2 mL/kg gavage, 10 min.
The mark [5] stands for this setting: Aconitum 2 mL/kg gavage, 20 min.
The mark [6] stands for this setting: Aconitum 2 mL/kg gavage, 30 min.
Setting [7] is: Aconitum 2 mL/kg gavage, 45 min.
Setting [8] is: Aconitum 2 mL/kg gavage, 60 min.
Setting [9] is: Aconitum 2 mL/kg gavage, 90 min.
Setting [10] is: Aconitum 2 mL/kg gavage, 120 min.
[11] abbreviates: Aconitum 2 mL/kg gavage, 240 min.
Where [12] appears, read: Aconitum 2 mL/kg gavage, 360 min.
Where [13] appears, read: Aconitum 2 mL/kg gavage, 480 min.
Where [14] appears, read: Glycyrrhizae + Aconitum 2 mL/kg gavage, 10 min.
[15] abbreviates: Glycyrrhizae + Aconitum 2 mL/kg gavage, 20 min.
Where [16] appears, read: Glycyrrhizae + Aconitum 2 mL/kg gavage, 30 min.
The mark [17] stands for this setting: Glycyrrhizae + Aconitum 2 mL/kg gavage, 45 min.
[18] abbreviates: Glycyrrhizae + Aconitum 2 mL/kg gavage, 60 min.
Where [19] appears, read: Glycyrrhizae + Aconitum 2 mL/kg gavage, 90 min.
Setting [20] is: Glycyrrhizae + Aconitum 2 mL/kg gavage, 120 min.
[21] abbreviates: Glycyrrhizae + Aconitum 2 mL/kg gavage, 240 min.
The mark [22] stands for this setting: Glycyrrhizae + Aconitum 2 mL/kg gavage, 360 min.
Where [23] appears, read: Glycyrrhizae + Aconitum 2 mL/kg gavage, 480 min.
Setting [24] is: RLMs of rats pretreated with Glycyrrhizae 0.33 g/kg.
The mark [25] stands for this setting: RLMs of rats pretreated with Glycyrrhizae 1 g/kg.
[26] abbreviates: RLMs of rats pretreated with Glycyrrhizae 3 g/kg.
The mark [27] stands for this setting: RLMs of rats pretreated with Phenobarbital 0.08 g/kg.
Setting [28] is: AC 90 min, ketoconazole stock 0.04 mmol/L.
Setting [29] is: MA 120 min, ketoconazole stock 0.04 mmol/L.

Several values for one entry are separate records, joined by “and”; a condition that tells them apart may be missing. Equal values may be shown once.

Take `CCN1C[C@]2(COC)[C@H](O)C[C@H](OC)[C@@]34[C@@H]5C[C@@]6(O)[C@H](OC(=O)c7ccccc7)[C@@H]5[C@@](OC(C)=O)([C@@H]([C@H](OC)[C@H]23)[C@@H]14)[C@@H](O)[C@@H]6OC` [AC, aconitine]: the “metabolites produced in RLMs” value in series [1] is “three metabolites (A1-A3)”. The “plasma concentration with compatibility of Glycyrrhizae and Aconitum vs Aconitum alone” value in series [2] was “significantly lower”. In addition, the Plasma concentration in series [2] (setting [4]) was 0.0562 and 0.0808 and 0.0292 and 0.0385 and 0.0141; in series [2] (setting [5]) it was 0.0945 and 0.121 and 0.0589 and 0.0443 and 0.0407; in series [2] (setting [6]), 0.0925 and 0.117 and 0.0557 and 0.0722 and 0.05; in series [2] (setting [7]), 0.118 and 0.156 and 0.082 and 0.0566 and 0.0273; in series [2] (setting [8]), 0.13 and 0.176 and 0.0973 and 0.0545 and 0.0474; in series [2] (setting [9]) it was 0.143 and 0.138 and 0.108 and 0.0529 and 0.0439. Moreover, the Plasma concentration in series [2] (setting [10]) is 0.0793 and 0.127 and 0.0603 and 0.0355 and 0.024; in series [2] (setting [11]) it was 0.0629 and 0.0516 and 0.0251 and 0.0305 and 0.0211; in series [2] (setting [12]) it was 0.0287 and 0.0253 and 0.00749 and 0.0187 and 0.0173; in series [2] (setting [13]), 0.0164 and 0.00823 and 0.0095 and 0.00724 and 0.00602; in series [2] (setting [14]), 0.0175 and 0.0293 and 0.0191 and 0.0122 and 0.0147; in series [2] (setting [15]), 0.0115 and 0.059 and 0.0448 and 0.017 and 0.0239. Also, the Plasma concentration in series [2] (setting [16]) is 0.0218 and 0.0596 and 0.0401 and 0.018 and 0.0426; in series [2] (setting [17]) it was 0.0355 and 0.0389 and 0.0637 and 0.0227 and 0.0397; in series [2] (setting [18]), 0.0309 and 0.0518 and 0.0337 and 0.0343 and 0.0443; in series [2] (setting [19]) it was 0.018 and 0.039 and 0.0371 and 0.0238 and 0.0457; in series [2] (setting [20]), 0.0163 and 0.0373 and 0.0236 and 0.0131 and 0.0446; in series [2] (setting [21]), 0.00197 and 0.0253 and 0.00871 and 0.00772 and 0.0267. Further, the Plasma concentration in series [2] (setting [22]) is 0.00413 and 0.00482 and 0 and 0.00225 and 0.0062; in series [2] (setting [23]), 0 (4×) and 0.00207. Further, the microsomal CLint (usually the rate of metabolic loss divided by the concentration) at 25 µM in series [3] (RLMs of Control rats) was found to be 10.8 ± 0.4 µL/min/mg; in series [3] (setting [24]) it was 14.7 ± 0.23 µL/min/mg; in series [3] (setting [25]), 15.5 ± 0.46 µL/min/mg; in series [3] (setting [26]) it was 11.6 ± 0.4 µL/min/mg; in series [3] (setting [27]), 16.3 ± 0.61 µL/min/mg. The half-life (in general, how long it takes for the measured level to halve) at 25 µM in series [3] (t1/2, RLMs of Control rats) amounted to 4.28 ± 0.159 h; in series [3] (t1/2, RLMs of rats pretreated with Glycyrrhizae 0.33 g/kg) it was 3.15 ± 0.05 h; in series [3] (t1/2, RLMs of rats pretreated with Glycyrrhizae 1 g/kg), 2.99 ± 0.0877 h; in series [3] (t1/2, RLMs of rats pretreated with Glycyrrhizae 3 g/kg) it was 3.99 ± 0.138 h; in series [3] (t1/2, RLMs of rats pretreated with Phenobarbital 0.08 g/kg) it was 2.84 ± 0.108 h.

Turning to `COC[C@]12CN(C)[C@@H]3[C@@H]4[C@H](OC)[C@H]1[C@@]3([C@@H](OC)C[C@H]2O)[C@@H]1C[C@@]2(O)[C@H](OC(=O)c3ccccc3)[C@@H]1[C@]4(OC(C)=O)[C@@H](O)[C@@H]2OC` [MA, mesaconitine], the “plasma concentration with compatibility of Glycyrrhizae and Aconitum vs Aconitum alone” value in series [2] is reported as “significantly lower”. For the same compound, the Plasma concentration in series [2] (setting [4]) is 0.104 and 0.259 and 0.0838 and 0.0908 and 0.0264; in series [2] (setting [5]), 0.112 and 0.306 and 0.0799 and 0.129 and 0.0672; in series [2] (setting [6]) it was 0.141 (2×) and 0.315 and 0.127 and 0.051; in series [2] (setting [7]), 0.131 and 0.358 and 0.138 and 0.0993 and 0.054; in series [2] (setting [8]) it was 0.209 and 0.452 and 0.123 and 0.0971 and 0.0527; in series [2] (setting [9]), 0.212 and 0.258 and 0.0872 and 0.0822 and 0.0482. Also, the Plasma concentration was 0.151 and 0.279 and 0.0558 and 0.0592 and 0.0337 in series [2] (setting [10]); 0.067 and 0.0621 and 0.0139 and 0.0294 and 0.00782 in series [2] (setting [11]); 0.0249 and 0.0364 and 0 (2×) and 0.0208 in series [2] (setting [12]); 0.00513 and 0 (4×) in series [2] (setting [13]); 0.0924 and 0.061 and 0.0433 and 0.0157 and 0.04 in series [2] (setting [14]); 0.0183 and 0.062 and 0.0517 and 0.0185 and 0.0482 in series [2] (setting [15]). The Plasma concentration in series [2] (setting [16]) is 0.0382 and 0.0796 and 0.0589 and 0.0258 and 0.0568; in series [2] (setting [17]), 0.0446 and 0.0702 and 0.0601 and 0.0125 and 0.0651; in series [2] (setting [18]), 0.0304 and 0.0692 and 0.0418 and 0.0207 and 0.0668; in series [2] (setting [19]) it was 0.038 and 0.0469 and 0.0364 and 0.0228 and 0.0572; in series [2] (setting [20]), 0.0276 and 0.0368 and 0.0358 and 0.0326 and 0.0683; in series [2] (setting [21]) it was 0.00794 and 0.0109 and 0.0106 and 0.00771 and 0.0278. Besides, the Plasma concentration in series [2] (setting [22]) was 0.00417 and 0.00296 and 0 and 0.0025 and 0.0106; in series [2] (setting [23]), 0. Further, the CLint is given as 16.00±0.40 μL/min/mg protein in series [3] (RLMs of Control rats); 17.73±0.23 μL/min/mg protein in series [3] (setting [24]); 18.80±0.04 μL/min/mg protein in series [3] (setting [25]); 17.87±0.83 μL/min/mg protein in series [3] (setting [26]); 19.60±0.40 μL/min/mg protein in series [3] (setting [27]). The t1/2 is 2.8887 ± 0.0722 h in series [3] (RLMs of Control rats); 2.6055 ± 0.0337 h in series [3] (setting [24]); 2.4582 ± 0.0522 h in series [3] (setting [25]); 2.5895 ± 0.118 h in series [3] (setting [26]); 2.358 ± 0.048 h in series [3] (setting [27]).

Take `Cc1nc2c([nH]1)c(=O)n(C)c(=O)n2Cc1ccco1` [furaphylline]: the “effect on the metabolism of AC, MA and HA” value in the series with CYP450 (stock 0.2 mmol/L) is “no significant effect”.

Consider `CC(=O)N1CCN(c2ccc(OCC3COC(Cn4ccnc4)(c4ccc(Cl)cc4Cl)O3)cc2)CC1` (stereo not drawn) [ketoconazole], for which, in the series with CYP450 (setting [28]), the “production of AC metabolite A1, difference vs control” value is on record as -0.2416 ± 0.0644; the “production of AC metabolite A2, difference vs control” value is listed as -0.4708 ± 0.02905; the “production of AC metabolite A3, difference vs control” value is recorded as -0.4643 ± 0.06743. Also, in the series on CYP450 (HA 90 min), the “production of HA metabolite H2, difference vs control” value is -0.4161 ± 0.01634. In the series on CYP450 (HA 90 min, ketoconazole stock 0.04 mmol/L), the “production of HA metabolite H1, difference vs control” value was -0.4482 ± 0.05543. Besides, in the series with CYP450 (setting [29]), the “production of MA metabolite M1, difference vs control” value is -0.4085 ± 0.07279; the “production of MA metabolite M2, difference vs control” value is -0.3312 ± 0.06126; the “production of MA metabolite M3, difference vs control” value is given as -0.3905 ± 0.01824.
